# “Also recorded” adds a separate entry of the source. Counter-ions that a name gives are not always drawn.
# Test system: MnSOD
# Assay: Nitration of MnSOD (immunoprecipitation and western blot)
# Assay type: in vivo, mouse
# Conditions: hydrochloride
# Description: Solubilized isolated mitochondrial proteins (500 μg) in 500 μL RIPA buffer (9.1 mM Na2HPO4, 1.7 mM NaH2PO4, 150 mM NaCl, 0.5% sodium deoxycholate, 1% v/v Nonidet P40, 0.1% SDS, pH 7.2) were incubated for 16 hours at 4° C. with 10 μg/mL anti-nitrotyrosine antibody (Cayman Chemical, Ann Arbor, Mich., USA) or polyclonal anti-MnSOD antibody (Upstate Biotechnology). Immune complexes were precipitated with 50 μL protein A/G-Agarose. Immunocomplexes were collected by centrifugation at 1500 g for 5 minutes at 4° C., and then washed four times with RIPA buffer. Immunoprecipitated samples were recovered by resuspending in 50 μL 2×sample loading buffer, heated to 95° C. for 5 minutes, and immediately fractionated by reducing SDS-PAGE in 12.5% gels. […] Immunoreactivities of the MnSOD nitrated protein bands were detected by ECL (Amersham Phamacia Biotech) as described by the manufacturer. Nitration of MnSOD was quantified using an akaline phosphatase-linked secondary antibody (Sigma), as described previously (Sultana et al. 2004), and evaluated by densitometric analysis used a Bio-Rad densitometer (Bio-Rad Laboratories, Hercules, Calif., USA).
smiles,measurement,setting,value
"COc1cccc2c1C(=O)c1c(O)c3c(c(O)c1C2=O)C[C@@](O)(C(=O)CO)C[C@@H]3O[C@H]1C[C@H](N)[C@H](O)[C@H](C)O1 [ADR, Doxorubicin hydrochloride]","Expression of immunoprecipitated MnSOD protein, control vs ADR-treated brain mitochondria",immunoprecipitation with anti-MnSOD antibody,no difference in expression; also recorded: No significant difference
same,Nitrated MnSOD (nitrotyrosine in MnSOD) in brain mitochondria,"wild-type mice, 3 hours after ADR 20 mg/kg",an increase of nitrated MnSOD; also recorded: significant increase in nitration of MnSOD; also recorded: significantly increased protein nitration
